Test results published in ChEMBL document CHEMBL6092178, “Discovery of a novel KV7.2/7.3 channels agonist for the treatment of neuropathic pain” (Eur J Med Chem, 2024).
Calls of active or inactive are those of the source.

Experiments:
[1] = target: Voltage-gated potassium channel, KQT; KCNQ2(Kv7.2)/KCNQ3(Kv7.3) (Homo sapiens, UniProt O43525+O43526); assay: Agonist activity at human KCNQ2/3 transfected in human HEK293 cells incubated for 30 mins by fluorimetric assay; format: cell-based
[2] = Acute toxicity in mouse assessed as lethal dose at IG administration measured after 7 days; conditions: in vivo, po, time 7 day
[3] = AUC (0 to t) in male Sprague-Dawley rat at 30 mg/kg, IG measured upto 24 hrs by LC-MS/MS analysis; format: ADME, organism-based; conditions: in vivo, po
[4] = target: Voltage-gated potassium channel, KQT; KCNQ2(Kv7.2)/KCNQ3(Kv7.3) (Homo sapiens) (UniProt O43526+O43525); assay: Agonist activity at human KCNQ2/3 transfected in human HEK293 cells incubated for 30 mins by fluorimetric assay relative to flupirtine; format: cell-based; conditions: filed as agonist
Rattus norvegicus [5] = assay: Antiallodynic activity against oxaliplatin-induced neuropathic pain Sprague-Dawley rat model assessed as increased mechanical withdrawal threshold at 40 mg/kg, IG measured after 48 hrs; format: functional, organism-based; conditions: time 1.0 hrs
[6] = Oral bioavailability in male Sprague-Dawley rat at 30 mg/kg measured upto 24 hrs by LC-MS/MS analysis; format: ADME, organism-based; conditions: in vivo
[7] = Cmax in male Sprague-Dawley rat at 30 mg/kg, IG measured upto 24 hrs by LC-MS/MS analysis; format: ADME, organism-based; conditions: in vivo, po
[8] = Half life in male Sprague-Dawley rat at 5 mg/kg, iv measured upto 24 hrs by LC-MS/MS analysis; format: ADME, organism-based; conditions: in vivo
[9] = target: Mu-type opioid receptor (Homo sapiens) (UniProt P35372); assay: Inhibition of mu-opioid receptor (unknown origin) relative to control; conditions: concentration not given here
Mu-type opioid receptor (Homo sapiens), sequence (P35372 whole entry): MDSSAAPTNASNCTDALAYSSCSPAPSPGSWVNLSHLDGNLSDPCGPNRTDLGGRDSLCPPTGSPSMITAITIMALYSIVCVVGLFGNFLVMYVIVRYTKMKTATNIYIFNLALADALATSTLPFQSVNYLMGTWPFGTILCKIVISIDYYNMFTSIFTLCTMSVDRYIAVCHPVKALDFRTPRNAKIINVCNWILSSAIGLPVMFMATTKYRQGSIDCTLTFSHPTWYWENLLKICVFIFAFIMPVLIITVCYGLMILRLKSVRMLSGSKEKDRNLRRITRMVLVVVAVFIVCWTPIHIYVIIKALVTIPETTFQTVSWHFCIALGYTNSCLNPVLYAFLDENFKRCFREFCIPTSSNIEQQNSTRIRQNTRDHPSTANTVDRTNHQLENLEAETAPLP

[10] = target: Glutamate [NMDA] receptor (Homo sapiens) (UniProt Q05586+Q12879+Q13224+O15399+O60391+Q14957+Q8TCU5); assay: Inhibition of NMDA receptor (unknown origin) relative to control; format: protein-complex assay; conditions: concentration not given here
Rattus norvegicus [11] = assay: Analgesic activity in streptozotocin-induced diabetic peripheral neuropathic pain male Sprague-Dawley rat model at 10 to 40 mg/kg pretreated with compound for 1 hrs and measured on day 15 after surgery; format: functional, organism-based; conditions: dose 10-40 mg/kg
Rattus norvegicus [12] = assay: Antinociceptive activity against formalin-induced pain in male Sprague-Dawley rat assessed as reduction in nociceptive response in phase II at IG administration pretreated for 5 mins followed by formalin challenge and measured after 60 mins; format: functional; conditions: po, 1.083 h, time 65 min
Rattus norvegicus [13] = assay: Antiallodynic activity in spinal nerve ligation-induced neuropathic pain male Sprague-Dawley rat model assessed as mechanical withdrawal threshold at 40 mg/kg, IG pretreated with compound for 1 hr and measured on day 15 after surgery; format: functional, organism-based; conditions: time 15.0 day
Rattus norvegicus [14] = species: Rattus norvegicus; assay: Analgesic activity in streptozotocin-induced diabetic peripheral neuropathic pain male Sprague-Dawley rat model pretreated with compound for 1 hrs and measured on day 15 after surgery; format: functional; conditions: dose 10-40 mg/kg
[15] = Clearance in male Sprague-Dawley rat at 5 mg/kg, iv measured upto 24 hrs by LC-MS/MS analysis; format: ADME, organism-based; conditions: in vivo
[16] = Cmax in male Sprague-Dawley rat at 5 mg/kg, iv measured upto 24 hrs by LC-MS/MS analysis; format: ADME, organism-based; conditions: in vivo
[17] = AUC (0 to t) in male Sprague-Dawley rat at 5 mg/kg, iv measured upto 24 hrs by LC-MS/MS analysis; format: ADME, organism-based; conditions: in vivo
[18] = Hepatotoxicity in rat assessed as increase in serum ALT level at 20 to 40 mg/kg, IG administered for 28 days and measured after 14 days relative to control; format: toxicity, organism-based; conditions: in vivo, po, 672 h, dose 20-40 mg/kg, time 28 day
Rattus norvegicus [19] = assay: Antiallodynic activity in CCI-induced neuropathic pain Sprague-Dawley rat model assessed as attenuation of mechanical allodynia at IG administration pretreated with compound for 1 hrs and measured on day 15 after surgery; format: functional; conditions: dose 10-40 mg/kg
Homo sapiens [20] = species: Homo sapiens; assay: Inhibition of serotonin receptor (unknown origin) relative to control; conditions: concentration not given here
[21] = target: Transient receptor potential cation channel subfamily V member 1 (Homo sapiens) (UniProt Q8NER1); assay: Inhibition of TRPV-1 (unknown origin) relative to control; conditions: concentration not given here
Transient receptor potential cation channel subfamily V member 1 (Homo sapiens), sequence (Q8NER1 whole entry): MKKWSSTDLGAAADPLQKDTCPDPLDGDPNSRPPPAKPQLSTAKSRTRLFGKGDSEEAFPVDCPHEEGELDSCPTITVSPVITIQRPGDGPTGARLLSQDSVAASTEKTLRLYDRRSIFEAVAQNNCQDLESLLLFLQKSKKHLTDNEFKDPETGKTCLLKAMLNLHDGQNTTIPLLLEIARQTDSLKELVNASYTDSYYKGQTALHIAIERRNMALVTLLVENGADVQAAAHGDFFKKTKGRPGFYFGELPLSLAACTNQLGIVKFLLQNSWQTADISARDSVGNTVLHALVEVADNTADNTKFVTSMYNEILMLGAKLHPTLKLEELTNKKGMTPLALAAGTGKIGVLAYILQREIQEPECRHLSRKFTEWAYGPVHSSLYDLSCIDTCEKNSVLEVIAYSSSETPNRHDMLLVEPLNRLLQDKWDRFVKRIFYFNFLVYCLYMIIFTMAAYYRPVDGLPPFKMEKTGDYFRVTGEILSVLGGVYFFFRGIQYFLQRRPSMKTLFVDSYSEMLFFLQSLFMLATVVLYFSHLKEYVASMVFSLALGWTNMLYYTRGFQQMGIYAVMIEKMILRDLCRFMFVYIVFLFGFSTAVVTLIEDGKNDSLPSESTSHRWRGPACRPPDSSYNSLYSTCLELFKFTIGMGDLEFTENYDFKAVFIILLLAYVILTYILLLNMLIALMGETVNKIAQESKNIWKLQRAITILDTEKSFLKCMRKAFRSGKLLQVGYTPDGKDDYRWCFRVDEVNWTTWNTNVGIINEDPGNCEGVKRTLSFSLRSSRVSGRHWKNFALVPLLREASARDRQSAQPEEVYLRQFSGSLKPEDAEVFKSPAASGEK

[22] = Hepatotoxicity in rat assessed as change in serum total bilirubin (TBIL) level at 10 to 40 mg/kg, IG administered for 28 days and measured after 14 days; format: toxicity, organism-based; conditions: in vivo, po, 672 h, dose 10-40 mg/kg, time 28 day
[23] = target: Voltage-gated inwardly rectifying potassium channel KCNH2 (Homo sapiens, UniProt Q12809); assay: Inhibition of hERG expressed in HEK293 cells by patch clamp method; format: toxicity, cell-based
Voltage-gated inwardly rectifying potassium channel KCNH2, sequence (Q12809 whole entry): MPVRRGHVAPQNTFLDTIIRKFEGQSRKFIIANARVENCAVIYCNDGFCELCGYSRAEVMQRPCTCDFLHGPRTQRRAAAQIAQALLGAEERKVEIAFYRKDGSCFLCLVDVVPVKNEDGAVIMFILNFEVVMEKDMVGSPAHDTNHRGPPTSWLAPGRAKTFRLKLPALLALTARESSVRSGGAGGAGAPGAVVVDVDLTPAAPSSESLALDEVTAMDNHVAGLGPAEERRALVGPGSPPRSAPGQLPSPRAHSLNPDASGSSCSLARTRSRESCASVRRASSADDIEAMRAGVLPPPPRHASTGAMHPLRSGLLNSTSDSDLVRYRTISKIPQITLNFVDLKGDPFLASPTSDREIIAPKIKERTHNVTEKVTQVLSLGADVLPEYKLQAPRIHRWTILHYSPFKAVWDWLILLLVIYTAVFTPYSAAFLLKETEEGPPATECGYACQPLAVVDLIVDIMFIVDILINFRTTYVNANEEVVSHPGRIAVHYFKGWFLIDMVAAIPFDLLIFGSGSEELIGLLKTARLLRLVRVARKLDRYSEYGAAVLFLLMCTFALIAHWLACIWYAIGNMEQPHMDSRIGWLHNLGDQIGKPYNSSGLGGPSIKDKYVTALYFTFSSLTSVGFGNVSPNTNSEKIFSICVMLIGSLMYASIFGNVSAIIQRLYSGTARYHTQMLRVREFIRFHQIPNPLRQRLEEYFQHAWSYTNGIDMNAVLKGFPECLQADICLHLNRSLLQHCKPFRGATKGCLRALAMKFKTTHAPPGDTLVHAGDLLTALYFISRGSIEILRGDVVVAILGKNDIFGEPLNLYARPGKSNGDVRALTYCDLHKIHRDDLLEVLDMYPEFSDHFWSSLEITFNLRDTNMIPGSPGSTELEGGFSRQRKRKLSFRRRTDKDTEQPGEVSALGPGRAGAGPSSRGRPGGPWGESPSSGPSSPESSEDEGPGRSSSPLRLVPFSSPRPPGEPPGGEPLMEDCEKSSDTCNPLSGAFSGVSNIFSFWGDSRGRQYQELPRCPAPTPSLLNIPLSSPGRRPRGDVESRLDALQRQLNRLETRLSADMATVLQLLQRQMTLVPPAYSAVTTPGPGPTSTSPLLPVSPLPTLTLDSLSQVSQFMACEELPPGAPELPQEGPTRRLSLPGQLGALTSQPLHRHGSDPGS

[24] = Tmax in male Sprague-Dawley rat at 30 mg/kg, IG measured upto 24 hrs by LC-MS/MS analysis; format: ADME, organism-based; conditions: in vivo, po
[25] = Hepatotoxicity in rat assessed as change in serum AST level at 10 to 40 mg/kg, IG administered for 28 days and measured after 14 days; format: toxicity, organism-based; conditions: in vivo, po, 672 h, dose 10-40 mg/kg, time 28 day
Rattus norvegicus [26] = assay: Antinociceptive activity against formalin-induced pain in male Sprague-Dawley rat assessed as reduction in nociceptive response at IG administration pretreated for 5 mins followed by formalin challenge and measured for 9 mins (phase I); format: functional; conditions: po, 14 min
Homo sapiens [27] = species: Homo sapiens; assay: Inhibition of voltage-gated sodium channel Nav 1.7 (unknown origin) relative to control; conditions: concentration not given here
Rattus norvegicus [28] = assay: Antiallodynic activity in CCI-induced neuropathic pain Sprague-Dawley rat model assessed as attenuation of mechanical allodynia at 20 mg/kg, IG administration pretreated with compound for 1 hrs and measured on day 15 after surgery; format: functional, organism-based; conditions: time 15.0 day
Rattus norvegicus [29] = assay: Antiallodynic activity in IG dosed spinal nerve ligation-induced neuropathic pain male Sprague-Dawley rat model assessed as mechanical withdrawal threshold pretreated with compound for 1 hr and measured on day 15 after surgery; format: functional
Mus musculus [30] = assay: Induction of motor coordination impairment in mouse at 10 to 40 mg/kg, IG measured upto 120 mins by rotarod method; format: functional, organism-based; conditions: dose 10-40 mg/kg
[31] = Hepatotoxicity in rat assessed as change in serum ALP level at 10 to 40 mg/kg, IG administered for 28 days and measured after 14 days; format: toxicity, organism-based; conditions: in vivo, po, 672 h, dose 10-40 mg/kg, time 28 day
Rattus norvegicus [32] = assay: Antiallodynic activity in CCI-induced neuropathic pain Sprague-Dawley rat model assessed as attenuation of mechanical allodynia at 10 to 40 mg/kg, IG pretreated with compound for 1 hrs and measured on day 15 after surgery; format: functional, organism-based; conditions: dose 10-40 mg/kg, time 15.0 day
[33] = target: Histamine H3 receptor (Homo sapiens) (UniProt Q9Y5N1); assay: Inhibition of H3 receptor (unknown origin) relative to control; conditions: concentration not given here
Histamine H3 receptor (Homo sapiens), sequence (Q9Y5N1 whole entry): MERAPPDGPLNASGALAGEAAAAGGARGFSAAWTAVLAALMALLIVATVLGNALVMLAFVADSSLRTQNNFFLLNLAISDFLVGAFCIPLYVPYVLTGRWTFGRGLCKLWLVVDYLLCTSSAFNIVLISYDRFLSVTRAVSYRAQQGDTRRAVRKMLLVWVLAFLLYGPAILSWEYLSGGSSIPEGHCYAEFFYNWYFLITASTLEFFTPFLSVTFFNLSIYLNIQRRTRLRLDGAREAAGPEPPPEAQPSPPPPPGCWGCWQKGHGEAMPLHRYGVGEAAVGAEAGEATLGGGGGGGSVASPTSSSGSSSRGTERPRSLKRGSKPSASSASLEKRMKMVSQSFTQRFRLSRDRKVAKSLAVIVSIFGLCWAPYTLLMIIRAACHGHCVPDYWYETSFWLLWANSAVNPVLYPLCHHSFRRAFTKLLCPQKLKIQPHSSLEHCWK

[34] = AUC (0 to infinity) in male Sprague-Dawley rat at 5 mg/kg, iv measured upto 24 hrs by LC-MS/MS analysis; format: ADME, organism-based; conditions: in vivo
[35] = AUC (0 to infinity) in male Sprague-Dawley rat at 30 mg/kg, IG measured upto 24 hrs by LC-MS/MS analysis; format: ADME, organism-based; conditions: in vivo, po
[36] = Clearance in male Sprague-Dawley rat at 30 mg/kg, IG measured upto 24 hrs by LC-MS/MS analysis; format: ADME, organism-based; conditions: in vivo, po
Rattus norvegicus [37] = assay: Antinociceptive activity against formalin-induced pain in male Sprague-Dawley rat assessed as reduction in nociceptive response at 20 mg/kg, IG pretreated for 5 mins followed by formalin challenge and measured for first 9 mins (phase I); format: functional, organism-based; conditions: time 14.0 min
Rattus norvegicus [38] = assay: Antinociceptive activity against formalin-induced pain in male Sprague-Dawley rat assessed as reduction in nociceptive response at 20 mg/kg, IG pretreated for 5 mins followed by formalin challenge and measured for 10 to 60 mins (phase II); format: functional, organism-based
Rattus norvegicus [39] = assay: Antiallodynic activity against oxaliplatin-induced neuropathic pain Sprague-Dawley rat model assessed as increased mechanical withdrawal threshold at 10 to 40 mg/kg, IG measured for 48 hrs; format: functional, organism-based; conditions: dose 10-40 mg/kg
[40] = target: GABA-A receptor; anion channel (Homo sapiens) (UniProt P14867+P47870+P18507+P28472+P48169+Q99928+Q9UN88+P34903+O00591+O14764+Q8N1C3+P18505+P78334+P47869+P31644+Q16445); assay: Inhibition of GABAA receptor (unknown origin) relative to control; format: protein-complex assay; conditions: concentration not given here
[41] = Half life in male Sprague-Dawley rat at 30 mg/kg, IG measured upto 24 hrs by LC-MS/MS analysis; format: ADME, organism-based; conditions: in vivo, po
Rattus norvegicus [42] = assay: Antiallodynic activity against oxaliplatin-induced neuropathic pain Sprague-Dawley rat model assessed as increased mechanical withdrawal threshold at IG administration and measured after 48 hrs; format: functional; conditions: po
[43] = Acute toxicity in mouse assessed as lethal dose at iv administration measured after 7 days; format: organism-based; conditions: in vivo, time 7 day
[44] = Acute toxicity in mouse assessed as lethal dose at ip administration measured after 7 days; format: organism-based; conditions: in vivo, time 7 day
Mus musculus [45] = assay: Induction of motor coordination impairment in mouse at 20 mg/kg, IG measured upto 120 mins by rotarod method; format: functional, organism-based
Rattus norvegicus [46] = assay: Antinociceptive activity against formalin-induced pain in male Sprague-Dawley rat assessed as reduction in nociceptive response at 40 mg/kg, IG pretreated for 5 mins followed by formalin challenge and measured for 10 to 60 mins (phase II); format: functional, organism-based; conditions: time 15-65 min
Rattus norvegicus [47] = assay: Antinociceptive activity against formalin-induced pain in male Sprague-Dawley rat assessed as reduction in nociceptive response at 40 mg/kg, IG pretreated for 5 mins followed by formalin challenge and measured for first 9 mins (phase I); format: functional, organism-based; conditions: time 14.0 min

Voltage-gated potassium channel, KQT; KCNQ2(Kv7.2)/KCNQ3(Kv7.3), sequence (O43526 whole entry): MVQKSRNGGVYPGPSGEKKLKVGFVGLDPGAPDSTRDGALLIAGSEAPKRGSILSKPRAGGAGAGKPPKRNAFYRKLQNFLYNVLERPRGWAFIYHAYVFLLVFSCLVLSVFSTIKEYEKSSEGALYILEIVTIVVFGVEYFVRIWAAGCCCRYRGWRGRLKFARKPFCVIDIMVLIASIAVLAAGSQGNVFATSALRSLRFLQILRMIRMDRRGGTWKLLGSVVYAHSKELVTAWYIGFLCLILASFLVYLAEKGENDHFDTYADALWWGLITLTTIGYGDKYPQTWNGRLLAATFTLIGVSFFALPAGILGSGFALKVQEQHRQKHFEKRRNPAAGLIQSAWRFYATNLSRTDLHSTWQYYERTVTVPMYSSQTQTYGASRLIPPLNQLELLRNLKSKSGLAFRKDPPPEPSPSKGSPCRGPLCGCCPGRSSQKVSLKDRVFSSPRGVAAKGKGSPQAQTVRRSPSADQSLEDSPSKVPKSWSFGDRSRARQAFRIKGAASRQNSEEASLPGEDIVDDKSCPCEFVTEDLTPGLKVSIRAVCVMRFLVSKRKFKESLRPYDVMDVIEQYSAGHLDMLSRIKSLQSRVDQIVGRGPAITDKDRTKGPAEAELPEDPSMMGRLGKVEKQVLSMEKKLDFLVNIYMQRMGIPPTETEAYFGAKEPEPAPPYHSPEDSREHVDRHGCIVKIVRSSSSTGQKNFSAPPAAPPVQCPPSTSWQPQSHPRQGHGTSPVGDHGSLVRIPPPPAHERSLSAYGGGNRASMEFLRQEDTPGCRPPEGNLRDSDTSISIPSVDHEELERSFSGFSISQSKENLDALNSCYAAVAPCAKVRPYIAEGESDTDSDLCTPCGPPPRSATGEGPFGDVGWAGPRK
Voltage-gated potassium channel, KQT; KCNQ2(Kv7.2)/KCNQ3(Kv7.3), sequence (O43525 whole entry): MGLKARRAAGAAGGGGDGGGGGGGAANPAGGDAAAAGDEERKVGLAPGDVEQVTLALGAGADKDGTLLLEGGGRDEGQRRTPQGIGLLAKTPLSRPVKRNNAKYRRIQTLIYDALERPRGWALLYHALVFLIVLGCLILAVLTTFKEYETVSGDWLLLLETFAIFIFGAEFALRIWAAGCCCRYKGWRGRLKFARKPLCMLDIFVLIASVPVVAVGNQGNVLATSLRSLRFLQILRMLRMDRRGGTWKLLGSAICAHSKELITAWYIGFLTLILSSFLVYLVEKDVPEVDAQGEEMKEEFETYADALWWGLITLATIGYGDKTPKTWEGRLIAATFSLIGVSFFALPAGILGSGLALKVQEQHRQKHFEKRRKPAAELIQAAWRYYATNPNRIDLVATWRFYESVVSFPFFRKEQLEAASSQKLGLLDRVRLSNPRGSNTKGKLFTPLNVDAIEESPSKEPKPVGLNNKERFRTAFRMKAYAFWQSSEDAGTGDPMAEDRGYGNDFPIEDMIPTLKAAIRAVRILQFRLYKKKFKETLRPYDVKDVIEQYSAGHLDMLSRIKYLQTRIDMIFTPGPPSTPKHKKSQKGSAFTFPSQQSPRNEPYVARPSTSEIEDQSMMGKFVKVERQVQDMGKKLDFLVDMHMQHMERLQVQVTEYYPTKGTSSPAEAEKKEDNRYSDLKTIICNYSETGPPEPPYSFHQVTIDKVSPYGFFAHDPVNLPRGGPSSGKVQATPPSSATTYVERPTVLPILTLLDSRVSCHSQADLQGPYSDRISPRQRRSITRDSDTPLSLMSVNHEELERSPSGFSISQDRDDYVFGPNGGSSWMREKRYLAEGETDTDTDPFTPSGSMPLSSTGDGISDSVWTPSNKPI

## Nc1ccc(OCc2ccc(F)cc2)nc1N1CCCC1=O
[1]
  EC50: 12.7 µM

## CC(=O)Nc1nc(OCc2ccc3ccccc3c2)ccc1N
[1]
  EC50: 189 µM

## CC(=O)Nc1nc(OCc2ccc(F)cc2)ccc1N
[2]
  LD50 at 168 h: > 2000 mg/kg
[3]
  AUC(0-t) at 24 h: 4110 ng·h/mL
[4]
  Activity: 184%
Rattus norvegicus [5]
  Activity: Active; Inhibition Of Pain Was Higher Than Pregabalin
[6]
  bioavailability: 46.7%
[7]
  Cmax: 3340 ng/mL
[8]
  half-life: 12.8 h
[9]
  inhibition: < 50%
[10]
  inhibition: 69.7%
Rattus norvegicus [11]
  Activity: Active; Better Activity Than Pregabalin Observed
Rattus norvegicus [12]
  ED50: 14.7 mg/kg
Rattus norvegicus [13]
  Activity: Active; Superior Activity Observed Than Pregabalin
Rattus norvegicus [14]; 360 h, time 15 day
  ED50: 9.63 mg/kg
Rattus norvegicus [14]; time 15.0 day
  Activity: Dose-dependent-effect
[15]
  clearance: 56.7 mL/min/kg
[16]
  Cmax: 2850 ng/mL
[17]
  AUC(0-t) at 24 h: 1100 ng·h/mL
[18]
  Activity: < 70%
Rattus norvegicus [19]; time 15.0 day
  Activity: Dose-dependent-effect
Rattus norvegicus [19]; po, 360 h, time 15 day
  ED50: 12 mg/kg
Homo sapiens [20]
  inhibition: < 50%
[1]
  EC50: 1.03 µM
[21]
  inhibition: < 50%
[22]
  Activity: Non-toxic
[23]
  IC50: 448 µM
[24]
  Tmax: 0.17 h
[25]
  Activity: Non-toxic
Rattus norvegicus [26]
  ED50: 16.2 mg/kg
Homo sapiens [27]
  inhibition: < 50%
Rattus norvegicus [28]
  Activity: Active; Higher Value Observed Than Pregabalin
Rattus norvegicus [29]; po, 360 h, time 15 day
  ED50: 14.9 mg/kg
Rattus norvegicus [29]; time 15.0 day
  Activity: Dose-dependent-effect
Mus musculus [30]
  Activity: Active
[31]
  Activity: Non-toxic
Rattus norvegicus [32]
  Activity: Active
[33]
  inhibition: < 50%
[34]
  AUC(0-inf): 1520 ng·h/mL
[35]
  AUC(0-inf): 4270 ng·h/mL
[36]
  CL/F: 120 mL/min/kg
Rattus norvegicus [37]
  Activity: Active
Rattus norvegicus [38]
  Activity: Active
Rattus norvegicus [39]
  Activity: Active
[40]
  inhibition: 59.5%
[41]
  half-life: 3.5 h
Rattus norvegicus [42]
  ED50: 12.2 mg/kg
[43]
  LD50 at 168 h: 267 mg/kg
[44]
  LD50 at 168 h: 421 mg/kg

## Nc1ccc(OCc2ccc(F)cc2)nc1NC(=O)C1CCCC1
[1]
  EC50: 131 µM

## CC(C)C[C@H](CN)CC(=O)O
Mus musculus [45]
  Activity: inactive
Rattus norvegicus [46]
  Activity: Active
Rattus norvegicus [13]
  Activity: Active
Rattus norvegicus [47]
  Activity: inactive

## CC(=O)Nc1cc(OCc2ccc(F)cc2)ccc1N
[1]
  EC50: 13.5 µM
